This is an account of results in patent publication US10329289B2, “6,7-dihydro-5H-pyrrolo[3,4-B]pyridin-5-one allosteric modulators of the M4 muscarinic acetylcholine receptor” (Merck Sharp & Dohme Corp., priority 2015, dated 2019).

pEC50: −log10 of the molar value.

This assay has as its target T1, human M4 muscarinic acetylcholine receptor (Homo sapiens, UniProt P08173).
T1 construct: expressed in transfected cells; host or cells: CHO-K1
T1 sequence (P08173 1-479): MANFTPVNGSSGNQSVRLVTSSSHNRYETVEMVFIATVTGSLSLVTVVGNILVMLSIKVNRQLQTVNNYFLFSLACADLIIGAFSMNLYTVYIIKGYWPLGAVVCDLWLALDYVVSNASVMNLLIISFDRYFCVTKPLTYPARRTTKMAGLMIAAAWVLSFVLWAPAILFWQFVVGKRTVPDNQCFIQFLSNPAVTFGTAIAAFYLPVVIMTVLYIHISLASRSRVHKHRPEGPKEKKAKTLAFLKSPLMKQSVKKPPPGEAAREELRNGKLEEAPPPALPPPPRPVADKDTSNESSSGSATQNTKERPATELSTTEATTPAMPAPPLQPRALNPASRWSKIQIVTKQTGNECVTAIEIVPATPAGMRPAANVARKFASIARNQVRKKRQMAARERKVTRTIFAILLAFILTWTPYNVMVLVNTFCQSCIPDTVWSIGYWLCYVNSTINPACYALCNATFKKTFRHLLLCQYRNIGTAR
Put plainly: human FLIPR-based M4 PAM assay (Ca2+ mobilization, CHO-K1 cells with human M4 receptor and Gαqi5). The assay is classed as cell-based. As to conditions: acetylcholine at 20% of maximum response, read-out: M4 PAM IP. Summed up: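 Calcium-mobilization (FLIPR) readout in dye-loaded CHO-K1 cells co-expressing human M4 receptor and Gαqi5. Potentiation measured against acetylcholine at a concentration giving 20% of maximal response, with an optional 70% addition; the reported value is the curve inflection point from a 4-parameter logistic fit.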
In the case of `Cc1cc2c(nc1N1CCC(Oc3ccc4[nH]nc(Cl)c4c3)CC1)CNC2=O` [Example 313, 2-(4-((3-Chloro-1H-indazol-5-yl)ox)piperidin-1-yl)-3-methyl-6,7-dihydro-5H-pyrrolo[3,4-b]pyridin-5-one], the pEC50 is 7.52.
Then `Cc1cc2c(nc1N1CCC(Oc3ccc4[nH]ncc4c3Cl)CC1)CNC2=O` [Example 314, 2-(4-((4-Chloro-1H-indazol-5-yl)ox)piperidin-1-yl)-3-methyl-6,7-dihydro-5H-pyrrolo[3,4-b]pyridin-5-one], with 6.17; and `Cc1cc2c(nc1N1CCC(Oc3ccc4[nH]nc(Br)c4c3)CC1)CNC2=O` [Example 315, 2-(4-((3-bromo-1H-indazol-5-yl)oxy)piperidin-1-yl)-3-methyl-6,7-dihydro-5H-pyrrolo[3,4-b]pyridin-5-one], with 7.10; and `Cc1cc2c(nc1N1CCC(Oc3ccc4[nH]nc(C#N)c4c3)CC1)CNC2=O` [Example 316, 5-((1-(3-Methyl-5-oxo-6,7-dihydro-5H-pyrrolo[3,4-b]pyridin-2-yl)piperidin-4-yl)oxy)-1H-indazole-3-carbonitrile], with 6.70.
On to `Cc1cc2c(nc1N1CCC(Oc3cc(F)c4[nH]ncc4c3)CC1)CNC2=O` [Example 317, 2-(4-((7-Fluoro-1H-indazol-5-yl)ox)piperidin-1-yl)-3-methyl-6,7-dihydro-5H-pyrrolo[3,4-b]pyridin-5-one], for which the pEC50 is 6.90.
`COc1ccc(OC2CCN(c3nc4c(cc3C)C(=O)N(C[C@@H](O)C(F)(F)F)C4)CC2)cn1` [Example 318, (R)-2-(4-((6-Methoxypyridin-3-yl)oxy)piperidin-1-yl)-3-methyl-6-(3,3,3-trifluoro-2-hydroxypropyl)-6,7-dihydro-5H-pyrrolo[3,4-b]pyridin-5-one]: the pEC50 is 6.81.
Then `COc1ccc(OC2CCN(c3nc4c(cc3C)C(=O)N(C[C@H](O)C(F)(F)F)C4)CC2)cn1` [Example 319, (S)-2-(4-((6-methoxypyridin-3-yl)oxy)piperidin-1-yl)-3-methyl-6-(3,3,3-trifluoro-2-hydroxypropyl)-6,7-dihydro-5H-pyrrolo[3,4-b] pyridin-5-one], with 7.02.
The value for `CNc1ccc(OC2CCN(c3nc4c(cc3C)C(=O)NC4)CC2)cn1` [Example 320, 3-Methyl-2-(4-((6-(methylamino)pyridin-3-yl)oxy)piperidin-1-yl)-6,7-dihydro-5H-pyrrolo[3,4-b]pyridin-5-one] was 6.82; that for `Cc1cc2c(nc1N1CCC(Oc3ccc4c(c3)CC(C)(C)O4)CC1)CNC2=O` [Example 321, 2-(4-((2,2-Dimethyl-2,3-dihydrobenzofuran-5-yl)oxy)piperidin-1-yl)-3-methyl-6,7-dihydro-5H-pyrrolo[3,4-b]pyridin-5-one] was 6.71.
Turning to `Cc1cc2c(nc1N1CCC(Oc3cnn(CC4CC4)c3)CC1)CNC2=O` [Example 321A, 2-(4-((1-(cyclopropylmethyl)-1H-pyrazol-4-yl)oxy)piperidin-1-yl)-3-methyl-6,7-dihydro-5H-pyrrolo[3,4-b]pyridin-5-one], the pEC50 was 6.36.
The value for `Cc1cc2c(nc1N1CCC(Oc3ccc4c(c3)CCOCC4)CC1)CNC2=O` [Example 321B, 3-methyl-2-(4-((1,2,4,5-tetrahydrobenzo[d]oxepin-7-yl)oxy)piperidin-1-yl)-6,7-dihydro-5H-pyrrolo[3,4-b]pyridin-5-one] was 7.04; that for `COc1ccc(OC2CCN(c3nc4c(cc3C)C(=O)N(C)C4C(C)(C)O)CC2)cn1` (stereo not drawn) [Example 322, 7-(2-Hydroxypropan-2-yl)-2-(4-((6-methoxypyridin-3-yl)oxy)piperidin-1-yl)-3,6-dimethyl-6,7-dihydro-5H-pyrrolo[3,4-b]pyridin-5-one] was 6.30.
The value for `COc1ccc(OC2CCN(c3nc4c(cc3C)C(=O)N(C)[C@H]4C(C)(C)O)CC2)cn1` [Example 323A, (R)-7-(2-Hydroxypropan-2-yl)-2-(4-((6-methoxpyridin-3-yl)oxy)piperidin-1-yl)-3,6-dimethyl-6,7-dihydro-5H-pyrrolo[3,4-b]pyridin-5-one] was 6.58; that for `Cc1cc2c(nc1N1CCC(Oc3ccc4c(c3)CC(O)C4)CC1)CNC2=O` (stereo not drawn) [Example 324, 2-(4-((2-Hydroxy-2,3-dihydro-1H-inden-5-yl)oxy)piperidin-1-yl)-3-methyl-6,7-dihydro-5H-pyrrolo[3,4-b]pyridin-5-one] was 7.77.
Then `Cc1cc2c(nc1N1CCC(Oc3ccc(NCCO)nc3)CC1)CNC2=O` [Example 324E, 2-(4-((6-((2-Hydroxyethyl)amino)pyridin-3-yl)oxy)piperidin-1-yl)-3-methyl-6,7-dihydro-5H-pyrrolo[3,4-b]pyridin-5-one], with 6.38; and `Cc1cc2c(nc1N1CCC(Oc3cccc(C#N)c3)CC1)CN(P(=O)(O)O)C2=O` [Example 325, Ammonium (2-(4-(3-cyanophenoxy)piperidin-1-yl)-3-methyl-5-oxo-5,7-dihydro-6H-pyrrolo[3,4-b]pyridin-6-yl)phosphonate], with 6.69; and `Cc1cc2c(nc1N1CCC(Oc3ccc(O)nc3)CC1)CNC2=O` [Example 326, 2-(4-((6-Hydroxypyridin-3-yl)ox)piperidin-1-yl)-3-methyl-6,7-dihydro-5H-pyrrolo[3,4-b]pyridin-5-one], with 5.78.
With `COc1ccc(OC2CCN(c3nc4c(cc3Cl)C(=O)NC4)CC2)cn1` [Example 327, 3-Chloro-2-(4-((6-methoxypyridin-3-yl)ox)piperidin-1-yl)-6,7-dihydro-5H-pyrrolo[3,4-b]pyridin-5-one], the pEC50 was 6.69.
Then `Cc1c(N2CCC(Oc3ccc4c(c3)COC4)CC2)nc2c(c1C)C(=O)NC2` [Example 328, 2-(4-((1,3-Dihydro-2-benzofuran-5-yl)oxy)piperidin-1-yl)-3,4-dimethyl-6,7-dihydro-5H-pyrrolo[3,4-b]pyridin-5-one], with 7.21; and `Cc1c(N2CCC(OCC3CCC3)CC2)nc2c(c1C)C(=O)NC2` [Example 330, 2-(4-(cyclobutylmethoxy)piperidin-1-yl)-3,4-dimethyl-6,7-dihydro-5H-pyrrolo[3,4-b]pyridin-5-one], with 7.29; and `Cc1c(N2CCC(Oc3cnn(C)c3)CC2)nc2c(c1C)C(=O)NC2` [Example 331, 3,4-dimethyl-2-(4-((1-methyl-1H-pyrazol-4-yl)oxy)piperidin-1-yl)-6,7-dihydro-5H-pyrrolo[3,4-b]pyridin-5-one], with 7.48.
Take `Cc1c(N2CCC(Oc3ccc4c(c3)COCC4)CC2)nc2c(c1C)C(=O)NC2` [Example 332, 2-(4-(isochroman-7-yloxy)piperidin-1-yl)-3,4-dimethyl-6,7-dihydro-5H-pyrrolo[3,4-b]pyridin-5-one]: the pEC50 is 6.43.
The value for `Cc1c(N2CCC(Oc3ccc4c(c3)OCC4)CC2)nc2c(c1C)C(=O)NC2` [Example 333, 2-(4-((2,3-dihydrobenzofuran-6-yl)oxy)piperidin-1-yl)-3,4-dimethyl-6,7-dihydro-5H-pyrrolo[3,4-b]pyridin-5-one] was 7.43.
The value for `Cc1c(N2CCC(Oc3ccc4c(c3)C[C@H](O)C4)CC2)nc2c(c1C)C(=O)NC2` [Example 334A, (R)-2-(4-((2-hydroxy-2,3-dihydro-1H-inden-5-yl)oxy)piperidin-1-yl)-3,4-dimethyl-6,7-dihydro-5H-pyrrolo[3,4-b]pyridin-5-one] was 7.17.
